Consider 9 compounds from ChEMBL document CHEMBL4190184, “Synthesis and Biological Evaluation of Benzocyclooctene-based and Indene-based Anticancer Agents that Function as Inhibitors of Tubulin Polymerization” (Medchemcomm, 2016).

pIC50: −log10 of the molar value. The source made the active and inactive calls. No cut-off for these calls is given here. Some results are limits rather than exact numbers.

For orientation: pIC50 means the negative decadic logarithm of the IC50, by convention in mol/L. By GI50 is commonly meant the concentration at which growth is held to half of that of the control. As a reminder, the inhibition is the percentage by which the read-out fell short of the control.

Assay [1] in a line: Inhibition of bovine brain tubulin polymerization preincubated for 15 mins followed by GTP addition measured after 20 mins by spectrophotometric method. The arrangement: species or system Bos taurus.
The next assay relates to NCI-H460. In words: Growth inhibition of human NCI-H460 cells after 48 hrs by SRB assay. In kind it is functional. The settings on record: NCI-H460, 48 h. (In general: The SRB assay estimates cell density from bound dye.)
A further assay deals with DU-145. In words: Growth inhibition of human DU145 cells after 48 hrs by SRB assay. It counts as functional. As to conditions: DU-145, 48 h.
Another assay deals with SK-OV-3. Kind of assay: Growth inhibition of human SKOV3 cells after 48 hrs by SRB assay. In kind it is functional. As to conditions: SK-OV-3, 48 h.
The species entered for the next assay is Bos taurus. In words: Inhibition of [3H]colchicine binding to bovine brain tubulin at 5 uM after 10 mins by scintillation counting method relative to control.
Assay [2] relates to MCF7. Kind of assay: Induction of vascular disruption in human luc-GFP-mCherry-tagged MCF7 cells implanted in SCID-NOD mouse assessed as reduction in bioluminescence at 120 mg/kg, ip administered as single dose measured at 4 hrs post dose by luciferase reporter gene based imaging analysis relative to control. Also noted: scale not given: the % may be the effect or the level left. It counts as functional. Background: Reporter assays use an easily measured gene product as a stand-in for the process of interest.

Assay [3] concerns MCF7. Kind of assay: Induction of necrosis in human luc-GFP-mCherry-tagged MCF7 cells implanted in SCID-NOD mouse at 120 mg/kg, ip administered as single dose measured after 48 hrs by haematoxylin and eosin staining based microscopy. In kind it is functional, organism-based.
Assay [4] deals with MCF7. Kind of assay: Induction of vascular disruption in human luc-GFP-mCherry-tagged MCF7 cells implanted in SCID-NOD mouse assessed as reduction in bioluminescence at 120 mg/kg, ip administered as single dose measured at 24 to 48 hrs post dose by luciferase reporter gene based imaging analysis. It counts as functional, organism-based.

`COc1cc(C2=CCc3c2ccc(OC)c3OP(=O)(O)O)cc(OC)c1OC` had a pIC50 in assay [1] below 4.70. Besides, the GI50 in the assay on NCI-H460 was 1500 nM; in the assay on DU-145, 3340 nM; in the assay with SK-OV-3, 334 nM.

`COc1ccc2c(c1)CCCC/C=C\2c1cc(OC)c(OC)c(OC)c1` showed a negative logarithm of the IC50 (pIC50) in assay [1] of 5.52. This compound returned an inhibition in the assay filed under Bos taurus of 29%. Besides, the results for the GI50 with NCI-H460, with DU-145 and in the assay on SK-OV-3 were 431 nM, 570 nM and 400 nM, respectively.

As for `COc1cc(C2=CCc3c2ccc(OC)c3OC)cc(OC)c1OC`, in assay [1], the pIC50 was below 4.70. In addition, the 50% growth inhibitory concentration (GI50) in the assay on NCI-H460 stood at 42200 nM; in the assay on DU-145, 34600 nM; in the assay on SK-OV-3, 9460 nM.

As to `COc1cc(/C2=C/CCCCc3c2ccc(OC)c3OC)cc(OC)c1OC`, in assay [1], the negative-log IC50 (pIC50) is 5.35. The inhibition in the assay listed under Bos taurus was found to be 31%. In addition, the figures for the GI50 in the assay on NCI-H460, with DU-145 and in the assay on SK-OV-3 were 395 nM, 448 nM and 512 nM, respectively.

With `COc1ccc2c(c1O)CCCC/C=C\2c1cc(OC)c(OC)c(OC)c1`, in assay [1], the pIC50 was 5.92. Further, the inhibition in the assay filed under Bos taurus stood at 78%. For the same compound, the 50% growth inhibitory concentration (GI50) worked out at 107 nM in the assay on NCI-H460, 105 nM with DU-145 and 81.1 nM in the assay on SK-OV-3.

`COc1ccc2c(c1O)CC=C2c1cc(OC)c(OC)c(OC)c1` showed a pIC50 in assay [1] of 4.96. Moreover, in the assay listed under Bos taurus, the inhibition is 17%. In addition, the results for the concentration for 50% growth inhibition (GI50) with NCI-H460, in the assay on DU-145 and with SK-OV-3 were 388 nM, 362 nM and 704 nM, respectively.

As for `COc1ccc2c(c1)CC=C2c1cc(OC)c(OC)c(OC)c1`, in assay [1], the pIC50 was below 4.70. Besides, the 50% growth inhibitory concentration (GI50) in the assay on NCI-H460 is 4020 nM; in the assay on DU-145, 4660 nM; in the assay with SK-OV-3, 6150 nM.

`COc1ccc(/C=C\c2cc(OC)c(OC)c(OC)c2)cc1OP(=O)(O)O` [FOSBRETABULIN] showed a pIC50 in assay [1] below 4.70. In addition, the GI50 was determined as 2.82 nM in the assay on NCI-H460, 3.36 nM with DU-145 and 1.9 nM with SK-OV-3. Moreover, the Activity with MCF7 [2] amounted to 80%. Further, the outcome with MCF7 [3] was Active.

`COc1cc(/C2=C/CCCCc3c2ccc(OC)c3OP(=O)([O-])[O-])cc(OC)c1OC.[Na+].[Na+]` gave a negative logarithm of the IC50 (pIC50) in assay [1] below 4.70. Also, the GI50 in the assay with NCI-H460 came out at 26 nM; in the assay on DU-145 it was 41 nM; in the assay on SK-OV-3, 36.6 nM. In addition, the Activity with MCF7 [2] turned out to be 80%. Besides, the outcome in the assay with MCF7 [4] and with MCF7 [3] was Active.
